# Target: T1, glutaminase (GAC) (Homo sapiens, UniProt O94925)
# T1 sequence (O94925 55-598 isoform O94925-3 limits assumed): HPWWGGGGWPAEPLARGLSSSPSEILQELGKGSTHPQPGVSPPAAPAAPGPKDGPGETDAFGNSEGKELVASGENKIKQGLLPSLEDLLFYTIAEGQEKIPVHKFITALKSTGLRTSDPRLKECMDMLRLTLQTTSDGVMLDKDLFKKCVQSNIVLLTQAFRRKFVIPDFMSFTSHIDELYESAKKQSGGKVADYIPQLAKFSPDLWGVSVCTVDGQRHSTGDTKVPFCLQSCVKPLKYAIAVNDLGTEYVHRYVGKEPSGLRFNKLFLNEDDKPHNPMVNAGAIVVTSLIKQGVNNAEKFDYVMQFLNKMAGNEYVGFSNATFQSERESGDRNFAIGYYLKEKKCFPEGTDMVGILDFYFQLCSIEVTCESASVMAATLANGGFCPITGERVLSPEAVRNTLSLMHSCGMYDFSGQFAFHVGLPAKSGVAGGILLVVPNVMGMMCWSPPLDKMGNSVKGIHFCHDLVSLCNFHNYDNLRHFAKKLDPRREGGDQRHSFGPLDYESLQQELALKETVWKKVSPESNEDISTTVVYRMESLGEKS
# Assay: Glutaminase (GAC) coupled endpoint enzymatic assay (glutamate dehydrogenase/diaphorase/resazurin, Ex544/Em590)
# Assay type: biochemical
# Conditions: inhibition of glutaminase, tested in an assay of Example A or Example B; class symbols A-E
# Method in brief: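 Glutamate formed by GAC is coupled through GDH and diaphorase to resorufin fluorescence (Ex544/Em590), read after an SDS stop. Buffer pH 8.5 holds phosphate; glutamine is at Km, with 1.56 mM NAD in the enzyme mix. Compound and enzyme mix are preincubated 60 min at room temperature before substrate addition.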
row,Structure (SMILES),IC50 [µM]
1,"CN(C)c1ccc(CC(=O)Nc2nnc([C@H]3CCC[C@H](c4nnc(NC(=O)Cc5ccc(N(C)C)cc5)s4)C3)s2)cc1 [Compound 31, N,N′-(5,5′-((1S,3S)-cyclohexane-1,3-diyl)bis(1,3,4-thiadiazole-5,2-diyl))bis(2-(4-(dimethylamino)phenyl)acetamide)]",< 0.1
2,"CN(C)c1cccnc1CC(=O)Nc1nnc([C@H]2CCC[C@H](c3nnc(NC(=O)Cc4ncccc4N(C)C)s3)C2)s1 (relative stereo) [Compound 115, N,N′-(5,5′-(trans-cyclohexane-1,3-diyl)bis(1,3,4-thiadiazole-5,2-diyl))bis(2-(3-(dimethylamino)pyridin-2-yl)acetamide)]",0.5 to 1
3,O=C(Cc1cccc(N2CC(F)(F)C2)n1)Nc1nnc([C@H]2CCC[C@H](c3nnc(NC(=O)[C@H](O)c4ccccc4)s3)C2)s1 [Compound 369],< 0.1
4,"O=C(Cc1cccc(N2CC(F)(F)C2)n1)Nc1nnc([C@H]2CC[C@H](c3nnc(NC(=O)[C@H](O)c4ccccc4)s3)C2)s1 [Compound 378, (R)—N-(5-((1S,3S)-3-(5-(2-(6-(3,3-difluoroazetidin-1-yl)pyridin-2-yl)acetamido)-1,3,4-thiadiazol-2-yl)cyclopentyl)-1,3,4-thiadiazol-2-yl)-2-hydroxy-2-phenylacetamide]",< 0.1
5,O=C(Cc1nccs1)Nc1nnc([C@H]2CCC[C@H](c3nnc(NC(=O)Cc4nccs4)s3)C2)s1 [Compound 61],0.1 to 0.5
6,"O=C(Cc1cccc(OC(F)(F)F)c1)Nc1nnc([C@H]2CCC[C@H](c3nnc(NC(=O)Cc4ccccn4)s3)C2)s1 [Compound 364, 2-(pyridin-2-yl)-N-(5-((1S,3S)-3-(5-(2-(3-(trifluoromethoxy)phenyl)acetamido)-1,3,4-thiadiazol-2-yl)cyclohexyl)-1,3,4-thiadiazol-2-yl)acetamide]",< 0.1
7,"CN1CCC(c2cccc(CC(=O)Nc3nnc([C@H]4CCC[C@H](c5nnc(NC(=O)Cc6cccc(C7CCN(C)CC7)c6)s5)C4)s3)c2)CC1 [Compound 362, N,N′-(5,5′-((1S,3S)-cyclohexane-1,3-diyl)bis(1,3,4-thiadiazole-5,2-diyl))bis(2-(3-(1-methylpiperidin-4-yl)phenyl)acetamide)]",< 0.1
8,"N#Cc1cccc(CC(=O)Nc2nnc([C@H]3CCC[C@H](c4nnc(NC(=O)Cc5cccc(C6CCCNC6)c5)s4)C3)s2)c1 (stereo partly drawn) [Compound 367, 2-(3-cyanophenyl)-N-(5-((1S,3S)-3-(5-(2-(3-(piperidin-3-yl)phenyl)acetamido)-1,3,4-thiadiazol-2-yl)cyclohexyl)-1,3,4-thiadiazol-2-yl)acetamide]",< 0.1
9,O=C(Nc1nnc([C@H]2CC[C@H](c3nnc(NC(=O)[C@@H](O)c4ccccc4)s3)C2)s1)[C@@H](O)c1ccccc1 [Compound 379],< 0.1
10,COCCOc1ccnc(CC(=O)Nc2nnc([C@H]3CCC[C@H](c4nnc(NC(=O)Cc5cc(OCCOC)ccn5)s4)C3)s2)c1 [Compound 353],< 0.1
11,"O=C(Cc1cccc(N2CC(F)(F)C2)n1)Nc1nnc([C@H]2CCC[C@H](c3nnc(NC(=O)[C@@H](O)c4ccccc4)s3)C2)s1 [Compound 387, (S)—N-(5-((1S,3S)-3-(5-(2-(6-(3,3-difluoroazetidin-1-yl)pyridin-2-yl)acetamido)-1,3,4-thiadiazol-2-yl)cyclohexyl)-1,3,4-thiadiazol-2-yl)-2-hydroxy-2-phenylacetamide]",< 0.1
12,O=C(Cc1cccc(OC(F)(F)F)c1)Nc1nnc([C@H]2CC[C@H](c3nnc(NC(=O)Cc4cccc(N5CC(F)(F)C5)n4)s3)C2)s1 [Compound 373],< 0.1
13,"CC(=O)Nc1ccc(CC(=O)Nc2nnc([C@H]3CCC[C@H](c4nnc(NC(=O)Cc5ccc(NC(C)=O)cc5)s4)C3)s2)cc1 (single isomer, unassigned) [Compound 106]",< 0.1
14,O=C(Cc1cc2ccccc2[nH]1)Nc1nnc([C@H]2CCC[C@H](c3nnc(NC(=O)Cc4cc5ccccc5[nH]4)s3)C2)s1 [Compound 34],0.1 to 0.5
15,CC(=O)N(C)c1ccc(CC(=O)Nc2nnc([C@H]3CCC[C@H](c4nnc(NC(=O)Cc5ccc(N(C)C(C)=O)cn5)s4)C3)s2)nc1 [Compound 368],< 0.1
16,O=C(Cc1csc(N2CC(F)(F)C2)n1)Nc1nnc([C@H]2CCC[C@H](c3nnc(NC(=O)Cc4csc(N5CC(F)(F)C5)n4)s3)C2)s1 [Compound 336],< 0.1
17,"O=C(Cc1cccc(Cl)c1)Nc1nnc([C@H]2CCC[C@H](c3nnc(NC(=O)Cc4cccc(Cl)c4)s3)C2)s1 [Compound 43, N,N′-(5,5′-((1S,3S)-cyclohexane-1,3-diyl)bis(1,3,4-thiadiazole-5,2-diyl))bis(2-(3-chlorophenyl)acetamide)]",0.1 to 0.5

row,Structure (SMILES),IC50 [µM]
1,"O=C(Cc1ccccn1)Nc1nnc([C@@H]2CCC[C@@H](c3nnc(NC(=O)Cc4ccccn4)s3)C2)s1 [Compound 17, N,N′-(5,5′-((1R,3R)-cyclohexane-1,3-diyl)bis(1,3,4-thiadiazole-5,2-diyl))bis(2-(pyridin-2-yl)acetamide)]",1 to 2
2,"O=C(Cc1ccccc1Cl)Nc1nnc([C@H]2CCC[C@H](c3nnc(NC(=O)Cc4ccccc4Cl)s3)C2)s1 [Compound 51, N,N′-(5,5′-((1S,3S)-cyclohexane-1,3-diyl)bis(1,3,4-thiadiazole-5,2-diyl))bis(2-(2-chlorophenyl)acetamide)]",0.1 to 0.5
3,"N#Cc1ccccc1CC(=O)Nc1nnc([C@H]2CCC[C@H](c3nnc(NC(=O)Cc4ccccc4C#N)s3)C2)s1 [Compound 72, N,N′-(5,5′-((1S,3S)-cyclohexane-1,3-diyl)bis(1,3,4-thiadiazole-5,2-diyl))bis(2-(2-cyanophenyl)acetamide)]",< 0.1
4,"O=C(Cc1ccnc(N2CC(F)(F)C2)n1)Nc1nnc([C@H]2CCC[C@H](c3nnc(NC(=O)Cc4ccnc(N5CC(F)(F)C5)n4)s3)C2)s1 [Compound 346, N,N′-(5,5′-((1R,3R)-cyclohexane-1,3-diyl)bis(1,3,4-thiadiazole-5,2-diyl))bis(2-(2-(3,3-difluoroazetidin-1-yl)pyrimidin-4-yl)acetamide)]",< 0.1
5,"CSCCC(=O)Nc1nnc([C@H]2CCC[C@H](c3nnc(NC(=O)CCSC)s3)C2)s1 [Compound 46, N,N′-(5,5′-((1S,3S)-cyclohexane-1,3-diyl)bis(1,3,4-thiadiazole-5,2-diyl))bis(3-(methylthio)propanamide)]",0.1 to 0.5
6,O=C(Cc1cccc(CO)c1)Nc1nnc([C@H]2CCC[C@H](c3nnc(NC(=O)Cc4cccc(CO)c4)s3)C2)s1 [Compound 351],< 0.1
7,COc1ccc(CC(=O)Nc2nnc([C@H]3CCC[C@H](c4nnc(NC(=O)Cc5cccc(N6CC(F)(F)C6)n5)s4)C3)s2)cn1 [Compound 359],< 0.1
8,"CC(C)C(=O)Nc1nnc([C@H]2CCC[C@H](c3nnc(NC(=O)C(C)C)s3)C2)s1 (single isomer, unassigned) [Compound 98]",0.1 to 0.5
9,"COc1cc(CC(=O)Nc2nnc([C@H]3CCC[C@H](c4nnc(NC(=O)Cc5ccc(F)c(OC)c5)s4)C3)s2)ccc1F [Compound 78, N,N′-(5,5′-((1S,3S)-cyclohexane-1,3-diyl)bis(1,3,4-thiadiazole-5,2-diyl))bis(2-(4-fluoro-3-methoxyphenyl)acetamide)]",0.1 to 0.5
10,"O=C(Nc1nnc([C@H]2CCC[C@H](c3nnc(NC(=O)[C@@H](O)c4ccccc4)s3)C2)s1)[C@@H](O)c1ccccc1 [Compound 371, (2R,2′S)—N,N′-(5,5′-((1S,3S)-cyclohexane-1,3-diyl)bis(1,3,4-thiadiazole-5,2-diyl))bis(2-hydroxy-2-phenylacetamide)]",< 0.1
11,O=C(Cc1ccc(N2CC(F)C2)cn1)Nc1nnc([C@H]2CCC[C@H](c3nnc(NC(=O)Cc4ccc(N5CC(F)C5)cn4)s3)C2)s1 [Compound 357],< 0.1
12,"CC(=O)Nc1cccc(CC(=O)Nc2nnc([C@H]3CCC[C@H](c4nnc(NC(=O)Cc5cccc(NC(C)=O)n5)s4)C3)s2)n1 [Compound 104, N,N′-(5,5′-((1S,3S)-cyclohexane-1,3-diyl)bis(1,3,4-thiadiazole-5,2-diyl))bis(2-(6-acetamidopyridin-2-yl)acetamide)]",< 0.1
13,O=C(Cc1ccc(N2CC(F)C2)cn1)Nc1nnc([C@H]2CC[C@H](c3nnc(NC(=O)Cc4ccc(N5CC(F)C5)cn4)s3)C2)s1 [Compound 363],< 0.1
14,O=C(Nc1nnc([C@H]2CC[C@H](c3nnc(NC(=O)[C@H](O)c4ccccc4)s3)C2)s1)[C@H](O)c1ccccc1 [Compound 382],< 0.1
15,"O=C(Cc1cccc(OC(F)(F)F)c1)Nc1nnc([C@H]2CCC[C@H](c3nnc(NC(=O)Cc4cccc(N5CC(F)(F)C5)n4)s3)C2)s1 [Compound 388, 2-(6-(3,3-difluoroazetidin-1-yl)pyridin-2-yl)-N-(5-((1S,3S)-3-(5-(2-(3-(trifluoromethoxy)phenyl)acetamido)-1,3,4-thiadiazol-2-yl)cyclohexyl)-1,3,4-thiadiazol-2-yl)acetamide]",< 0.1
16,"O=C(CC1CC1)Nc1nnc([C@H]2CCC[C@H](c3nnc(NC(=O)CC4CC4)s3)C2)s1 [Compound 49, N,N′-(5,5′-((1S,3S)-cyclohexane-1,3-diyl)bis(1,3,4-thiadiazole-5,2-diyl))bis(2-cyclopropylacetamide)]",0.1 to 0.5

# Reference: US10087172B2, “Compounds and their methods of use” (AGIOS PHARMACEUTICALS, INC, priority 2012, dated 2018)
